Measured values published in PubChem BioAssay AID1963850 (Molecular Pharmacology Branch, DTP, NCI, 2024).

System: 192522-019-R-J2-PDC complex tumor spheroid viability
Assay: Anticancer human tumor 192522-019-R-J2-PDC patient-derived colon adenocarcinoma cell line growth inhibition [POLQ]
Conditions: for IC50: curve of first compound; for viability, T/C: stronger effect = lower value
Experimental: Multicellular complex tumor spheroid response to Polymerase (POL) inhibitors (novobiocin, ART-558, RP6685) in combination with a variety of drugs and investigational agents in selected tumor cell lines
The POL inhibitors (novobiocin, ART-558, and RP6685) were evaluated both individually and in combination with standard of care and investigational anticancer small molecules within a complex spheroid model of solid tumors. . Complex spheroids include a stromal component modeled by human endothelial cells (HUVEC) and fibroblasts modeled by human mesenchymal stem cells (MSCs). The concentration ranges selected for each drug and investigational agent were based upon clinically achievable concentrations if the clinical Cmax of the agent was known.
Compounds. The drugs and investigational agents: novobiocin (NSC847541), ART-558 (NSC835418), RP-6685 (NSC848927), peposertib (NSC802822), ceralasertib (NSC780249), elimusertib (NSC800525), camonsertib (NSC841442), AZD-1390 (NSC803789), olaparib (NSC753686), talazoparib (NSC767125), rucaparib (NSC756644), sotorasib (NSC818433), MRTX-1133 (NSC836407), SN-38 (NSC673596), topotecan (NSC609699), epotoside (NSC141540), doxorubicin (NSC123127), gemcitabine (NSC613327), 5-fluorouracil (NSC19893), paclitaxel (NSC125973), vemurafenib (NSC761431), MSA-2 (NSC828583), SN-011 (NSC837082), adavosertib (NSC754352), prexasertib (NSC758257), carboplatin (NSC241240) and oxaliplatin (NSC266046), were obtained from the National Cancer Institute (NCI) Developmental Therapeutics Program Chemical Repository (21). The FDA-approved anticancer drug set is available from the Developmental Therapeutics Program at https://dtp.cancer.gov/organization/dscb/obtaining/. […] The stock solutions were prepared in dimethyl sulfoxide (DMSO, Sigma-Aldrich, St. Louis, MO, cat. D2650), except for the platinum compounds which were prepared in saline (Quality Biological, Gaithersburg, MD, cat. 114-055-101), at 800-fold the tested concentration and stored at -70 degrees C prior to their use. All drugs and investigational agents were tested over a range starting from a high concentration at or near the clinical Cmax and decreasing in half-log increments. If the clinical Cmax for an agent had not been determined, the highest concentration tested was 10 microM, except for SN-38, which was tested at a high concentration of 1 microM.
Cell Culture. All cells were maintained in an incubator at 37 degrees C and 5% CO2 with 95% humidity. The PDC lines were cultured according to standard operating procedures established by the NCI PDMR (https://pdmr.cancer.gov). Table 3 of the manuscript, lists the cell lines along with the number of the three cell types plated to form the mct-spheroids and media for tumor cell growth. After thawing, all PDC lines, except 997537-175-T-J1-PDC and 415267-285-R-J2-PDC, were cultured in Matrigel-coated flasks prepared with a working solution of 1X Ham's F-12 nutrient mix, without supplementation (Thermo Fisher Scientific, cat. 11765054), 100 U/mL penicillin-streptomycin (Thermo Fisher Scientific, cat. 15140122), and 2.5% Matrigel (Corning Inc., Corning, NY, cat. 354248) for the first three passages. The two PDC lines 997537-175-T-J1-PDC and 415267-285-R-J2-PDC were cultured on uncoated flasks. The 857933-349-R-J2-PDC line was cultured in 6C/Colon 1B media containing advanced DMEM/F-12 (Thermo Fisher Scientific, cat. 12634028), 10 mM HEPES (Thermo Fisher Scientific, cat. 15630080), 1X GlutaMAX supplement (Thermo Fisher Scientific, cat. 35050061), 0.1 mg/mL primocin (InvivoGen, San Diego, CA, cat. ant-pm-2), 10% defined fetal bovine serum, heat inactivated (HyClone Laboratories Inc., Logan, UT, cat. SH30070.03HI), 50% L-WRN conditioned media (ATCC, cat. CRL-3276), 1.25 mM N-Acetyl-L-cysteine (Sigma-Aldrich, cat. A9165), 10 mM nicotinamide (Sigma-Aldrich, cat. N0636), 1X B-27 supplement (Thermo Fisher Scientific, cat. 17504044), 1X N-2 supplement (Thermo Fisher Scientific, cat. […]

[1] = second compound 0.0316 µM, first compound 0.0316 µM
[2] = second compound 0.0316 µM, first compound 0.1 µM
[3] = second compound 0.0316 µM, first compound 0.316 µM
[4] = second compound 0.0316 µM, first compound 1 µM
[5] = second compound 0.0316 µM, first compound 3.16 µM
[6] = second compound 0.0316 µM, first compound 10 µM
[7] = second compound 0.1 µM, first compound 0.0316 µM
[8] = second compound 0.1 µM, first compound 0.1 µM
[9] = second compound 0.1 µM, first compound 0.316 µM
[10] = second compound 0.1 µM, first compound 1 µM
[11] = second compound 0.1 µM, first compound 3.16 µM
[12] = second compound 0.1 µM, first compound 10 µM
[13] = second compound 0.316 µM, first compound 0.0316 µM
[14] = second compound 0.316 µM, first compound 0.1 µM
[15] = second compound 0.316 µM, first compound 0.316 µM
[16] = second compound 0.316 µM, first compound 1 µM
[17] = second compound 0.316 µM, first compound 3.16 µM
[18] = second compound 0.316 µM, first compound 10 µM
[19] = second compound 1 µM, first compound 0.0316 µM
[20] = second compound 1 µM, first compound 0.1 µM
[21] = second compound 1 µM, first compound 0.316 µM
[22] = second compound 1 µM, first compound 1 µM
[23] = second compound 1 µM, first compound 3.16 µM
[24] = second compound 1 µM, first compound 10 µM
[25] = second compound 3.16 µM, first compound 0.0316 µM
[26] = second compound 3.16 µM, first compound 0.1 µM
[27] = second compound 3.16 µM, first compound 0.316 µM
[28] = second compound 3.16 µM, first compound 1 µM
[29] = second compound 3.16 µM, first compound 3.16 µM
[30] = second compound 3.16 µM, first compound 10 µM
[31] = second compound 10 µM, first compound 0.0316 µM
[32] = second compound 10 µM, first compound 0.1 µM
[33] = second compound 10 µM, first compound 0.316 µM
[34] = second compound 10 µM, first compound 1 µM
[35] = second compound 10 µM, first compound 3.16 µM
[36] = second compound 10 µM, first compound 10 µM
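Note: spheroids exposed to drugs for seven days before reading.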
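Throughout, for viability, T/C: 100% = DMSO vehicle control viability in luminescence.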

In the case of COc1cc(C2c3cc4c(cc3C(OC3OC5COC(C)OC5C(O)C3O)C3COC(=O)C23)OCO4)cc(OC)c1O (centres undefined) + COC1C(OC(N)=O)C(O)C(Oc2ccc3c(O)c(NC(=O)c4ccc(O)c(CC=C(C)C)c4)c(=O)oc3c2C)OC1(C)C, the IC50 (second compound 0.0316 µM) is reported as over 10 µM, the IC50 (second compound 0.1 µM) is reported as over 10 µM and the IC50 (second compound 0.316 µM) is reported as over 10 µM. For the same molecule, the IC50 (second compound 1 µM) was over 10 µM, the IC50 (second compound 3.16 µM) was over 10 µM and the IC50 (second compound 10 µM) was over 10 µM. It also gave a viability, T/C [1] of 106%, a viability, T/C [2] of 89.3% and a viability, T/C [3] of 92.4%. It also gave a viability, T/C [4] of 82.1%, a viability, T/C [5] of 58.6% and a viability, T/C [6] of 54.2%. The viability, T/C [7] was 104%, the viability, T/C [8] was 95.7% and the viability, T/C [9] was 100%. The viability, T/C [10] was 84%, the viability, T/C [11] was 56.8% and the viability, T/C [12] was 59.4%. It also gave a viability, T/C [13] of 95.6%, a viability, T/C [14] of 97.8% and a viability, T/C [15] of 101%. For the same molecule, the viability, T/C [16] was 83%, the viability, T/C [17] was 55.2% and the viability, T/C [18] was 64%. For the same molecule, the viability, T/C [19] was 106%, the viability, T/C [20] was 101% and the viability, T/C [21] was 96.6%. For the same molecule, the viability, T/C [22] was 103%, the viability, T/C [23] was 59.7% and the viability, T/C [24] was 57.4%. The viability, T/C [25] was 110%, the viability, T/C [26] was 109% and the viability, T/C [27] was 99.9%. It also gave a viability, T/C [28] of 84.7%, a viability, T/C [29] of 67% and a viability, T/C [30] of 60.6%. For the same molecule, the viability, T/C [31] was 107%, the viability, T/C [32] was 96.2% and the viability, T/C [33] was 103%. The viability, T/C [34] was 88.5%, the viability, T/C [35] was 65.4% and the viability, T/C [36] was 61.4%.
For COc1cccc2c1C(=O)c1c(O)c3c(c(O)c1C2=O)CC(O)(C(=O)CO)CC3OC1CC(N)C(O)C(C)O1 (centres undefined) + COC1C(OC(N)=O)C(O)C(Oc2ccc3c(O)c(NC(=O)c4ccc(O)c(CC=C(C)C)c4)c(=O)oc3c2C)OC1(C)C, the IC50 (second compound 0.0316 µM) was over 10 µM, the IC50 (second compound 0.1 µM) was over 10 µM and the IC50 (second compound 0.316 µM) was over 10 µM. For the same molecule, the IC50 (second compound 1 µM) was over 10 µM, the IC50 (second compound 3.16 µM) was over 10 µM and the IC50 (second compound 10 µM) was over 10 µM. The viability, T/C [1] was 94.3%, the viability, T/C [2] was 79.1% and the viability, T/C [3] was 64.9%. The viability, T/C [4] was 78.1%, the viability, T/C [5] was 65.2% and the viability, T/C [6] was 55.3%. It also gave a viability, T/C [7] of 104%, a viability, T/C [8] of 84.4% and a viability, T/C [9] of 65.6%. It also gave a viability, T/C [10] of 78.4%, a viability, T/C [11] of 61.2% and a viability, T/C [12] of 55.2%. It also gave a viability, T/C [13] of 98.2%, a viability, T/C [14] of 86.4% and a viability, T/C [15] of 61.3%. The viability, T/C [16] was 79.3%, the viability, T/C [17] was 61.9% and the viability, T/C [18] was 55.6%. It also gave a viability, T/C [19] of 104%, a viability, T/C [20] of 92.8% and a viability, T/C [21] of 68.7%. For the same molecule, the viability, T/C [22] was 76.3%, the viability, T/C [23] was 71% and the viability, T/C [24] was 53.1%. For the same molecule, the viability, T/C [25] was 101%, the viability, T/C [26] was 85.5% and the viability, T/C [27] was 69.5%. The viability, T/C [28] was 73%, the viability, T/C [29] was 67% and the viability, T/C [30] was 54.7%. It also gave a viability, T/C [31] of 102%, a viability, T/C [32] of 87.4% and a viability, T/C [33] of 66.5%. The viability, T/C [34] was 78%, the viability, T/C [35] was 70.8% and the viability, T/C [36] was 58.6%.
